In PubChem BioAssay (NCI):
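1) Cells in 96-well plates. 2) Compound, 48 h, 5 concentrations. 3) Linear interpolation between surrounding doses. 4) Unreached endpoint = highest concentration. TGI denotes the concentration required for complete inhibition of growth.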

Columns and labels:
Test in all cases: inhibition of tumour cell growth, NCI panel, 48 h
[1] = tested on: NCI-H23 lung
[2] = tested on: MCF7 breast
[3] = tested on: OVCAR-4 ovarian
[4] = tested on: PC-3 prostate
[5] = tested on: SW-620 colon
[6] = tested on: DU-145 prostate
[7] = tested on: OVCAR-3 ovarian
[8] = tested on: HL-60(TB) leukemia
[9] = tested on: HCT-116 colon
[10] = tested on: CCRF-CEM leukemia
[11] = tested on: MDA-N
[12] = tested on: NCI-H522 lung
[13] = tested on: KM12 colon
[14] = tested on: SK-OV-3 ovarian
[15] = tested on: COLO 205 colon
[16] = tested on: HOP-62 NSCLC
[17] = tested on: SK-MEL-5 melanoma
[18] = tested on: U251 CNS
[19] = tested on: UO-31 renal
[20] = tested on: UACC-62 melanoma
[21] = tested on: HCT-15 colon
[22] = tested on: MALME-3M melanoma
[23] = tested on: CAKI-1 renal
[24] = tested on: LOX IMVI melanoma
[25] = tested on: SK-MEL-28 melanoma
[26] = tested on: SNB-19 CNS
[27] = tested on: M14 melanoma
[28] = tested on: HOP-92 NSCLC
[29] = tested on: OVCAR-5 ovarian
[30] = tested on: SNB-75 CNS
[31] = tested on: MOLT-4 leukemia
[32] = tested on: UACC-257 melanoma
[33] = tested on: RXF 393 renal
[34] = tested on: NCI-H226 lung
[35] = tested on: RPMI-8226 leukemia
[36] = tested on: SN12C renal
[37] = tested on: HCC-2998 colon
[38] = tested on: SR leukemia
[39] = tested on: ACHN renal
[40] = tested on: 786-0 renal
[41] = tested on: MDA-MB-231 breast
[42] = tested on: IGROV1 ovarian
[43] = tested on: NCI/ADR-RES ovarian
[44] = tested on: MDA-MB-435
[45] = tested on: OVCAR-8 ovarian
[46] = tested on: EKVX NSCLC
[47] = tested on: SF-268 CNS
[48] = tested on: SF-295 CNS
[49] = tested on: BT-549 breast
[50] = tested on: K-562 leukemia
[51] = tested on: A498 renal
[52] = tested on: HT29 colon
[53] = tested on: T-47D breast
[54] = tested on: SF-539 CNS
[55] = tested on: NCI-H460 lung
[56] = tested on: HS 578T breast
[57] = tested on: TK-10 renal
[58] = tested on: A549 NSCLC
[59] = tested on: SK-MEL-2 melanoma

Measured: TGI

CC1=C(O)C(=O)C(C2=C(O)C(=O)C(C)=C(O)C2=O)=C(O)C1=O
92.1 µM: [28]
54 µM: [20]
46.6 µM: [22]
67.9 µM: [17]
not listed: [57] | [58] | [59]
> 100 µM: all other assays above

COCOc1cc(OCOC)cc(C(=O)Oc2ccccc2)c1
not listed: [10]
> 100 µM: all other assays above
